Assay results taken from patent US11478445B2, “Method for treating acute myeloid leukemia” (Bionomics Limited, priority 2017, dated 2022).
Entries after “also recorded” stand apart in the source; their conditions may differ.

What was measured:
Assay type in all cases: cell-based, human
[1] = system: primary AML samples (MNC); test: Viability (Annexin V/7AAD) assay, AML samples
Experimental: Cryopreserved mononuclear cells (MNC from BM or leukapheresis samples) were thawed in a water bath at 37° C. and cell suspension transferred to a 50 mL tube. 20 mL of IMDM media (Sigma, 13390) supplemented with 20% FBS (JRH Biosciences), 50 U/mL DNase I (Sigma), 100 IU/mL penicillin (Sigma), 100 μg/mL streptomycin (Sigma) and 2 mM L-glutamine (Sigma) was added dropwise to the cells while the tube was being vortexed slowly (or mixed by hand). The cells were centrifuged at 400 g for 5 min, supernatant was discarded and the cells were washed once with 20 mL PBS. […] The next morning, viability was determined by trypan blue exclusion and samples with viability lower than 85% underwent dead cell removal by density gradient centrifugation as follows: 15 mL of Lymphoprep (AXIS-Shield) was transferred to a 50 mL tube and the cell suspension (25 mL) carefully overlayed (so as not to disturb the interface mixing with the Lymphoprep). […] Viability and cell density were determined by trypan blue exclusion and cells were plated for respective experiments as described in the Results section.
(§1) 2×10^5 cells (200 μL) were harvested in 5 mL tubes and washed 3 times with PBS. […] Results were analysed with FCS Express 4 Flow Research Edition software (De Novo Software). […]

[2] = system: healthy control (HC) BMMNC samples; test: Viability (Annexin V/7AAD) assay, healthy control samples
Experimental: Cryopreserved mononuclear cells (MNC from BM or leukapheresis samples) were thawed in a water bath at 37° C. and cell suspension transferred to a 50 mL tube. 20 mL of IMDM media (Sigma, 13390) supplemented with 20% FBS (JRH Biosciences), 50 U/mL DNase I (Sigma), 100 IU/mL penicillin (Sigma), 100 μg/mL streptomycin (Sigma) and 2 mM L-glutamine (Sigma) was added dropwise to the cells while the tube was being vortexed slowly (or mixed by hand). The cells were centrifuged at 400 g for 5 min, supernatant was discarded and the cells were washed once with 20 mL PBS. After the wash, the cells were resuspended in 25 mL IMDM (Sigma, 13390) supplemented with 20% FBS (JRH Biosciences), 100 IU/mL penicillin (Sigma), 100 μg/mL streptomycin (Sigma) and 2 mM L-glutamine (Sigma), and incubated overnight for recovery. The next morning, viability was determined by trypan blue exclusion and samples with viability lower than 85% underwent dead cell removal by density gradient centrifugation as follows: 15 mL of Lymphoprep (AXIS-Shield) was transferred to a 50 mL tube and the cell suspension (25 mL) carefully overlayed (so as not to disturb the interface mixing with the Lymphoprep). The tubes were centrifuged at 800 g for 20 min with acceleration set at 5 (half of the maximum) and no brake. MNC layer (formed in the interface between the media and the Lymphoprep) was transferred with a disposable Pasteur pipet into a 50 mL tube containing 20 mL PBS. […] Viability and cell density were determined by trypan blue exclusion and cells were plated for respective experiments as described in the Results section.
as §1

Noxa = test: Western blot for Noxa in primary AML sample L-AML6; conditions: L-AML6, 48 h
Experimental: (§2) Cells were harvested (4×10^6 for cell lines and 7×10^6 for L-AMLs) and washed 3 times with cold PBS (centrifuged at 4° C.). Lysis buffer was prepared with NP40 Cell Lysis Buffer (ThermoFisher Scientific), cOmplete protease inhibitor (Roche, 046993116001), PhosStop (Roche, 04906837001) and Pefablock (Roche, 11585916001) at the recommended concentrations. After the washes, cells were resuspended in 50 μL of lysis buffer, vortexed and incubated on ice for 30 min. Samples were vortexed every 10 min. After 30 min incubation, samples were centrifuged at 14,000 g at 4° C. for 10 min and supernatants were transferred to tubes. Protein was quantified using the DC Protein Assay kit (BioRad) per manufacturer's protocol. 50 μg of cell lines lysate or 20 μg of L-AML6 lysate were loaded for SDS-PAGE. Protein was transferred from the gels into PVDF membranes using a semi dry transfer apparatus (BioRad). The membranes were blocked for 1 h at room temperature with 5% skim milk in 0.1% TBS-t and then incubated with gentle shaking with primary antibodies overnight at 4° C. […]
(§3) Western blot analysis. […] For L-AML6 cells P-JNK^Thr183/Tyr185 and Noxa expression were determined using the specific antibodies that have been validated in the cell line experiments (FIG. 4). […]

P-JNK^Thr183/Tyr185 = test: Western blot for P-JNK in primary AML sample L-AML6; conditions: L-AML6, 48 h
Experimental: as §2, §3

Structure (SMILES) | viability (live cells, Annexin V/7AAD) ([1]; 48 h to 72 h) | viability (live cells, Annexin V/7AAD) ([2]; 48 h) | viability (live cells, Annexin V/7AAD) ([2]; up to 72 h) | Noxa expression (Noxa) | P-JNK level (P-JNK^Thr183/Tyr185; 500 nM) | response to treatment (viability) [1] | response to treatment (viability) [2] | P-JNK level (P-JNK^Thr183/Tyr185; indicated doses)
COc1cc(C(=O)c2c(C)oc3c(O)c(OC)ccc23)cc(OC)c1OC [EX 1, 2-Methyl-7-hydroxy-3-(3,4,5-trimethoxybenzoyl)-6-methoxybenzofuran] | viability decreasing substantially | some reduced viability | viability remained stable | no change was observed; also recorded: does not appear to change | small increase; also recorded: induced |  |  | 
COc1cc(/C=C\c2ccc(OC)c(OP(=O)(O)O)c2OP(=O)(O)O)cc(OC)c1OC [OXi4503, reference compound] |  |  |  | no change was observed; also recorded: does not appear to change |  | did not show a response | did not show a response | no apparent change
